Source: US20180327367A1, “MACROCYCLIC BROAD SPECTRUM ANTIBIOTICS” (priority 2015, published 2018)
In brackets after ≈: the same amount, converted by molar mass. Where two headings read alike, the source gives them in different places.

Assays:
[1] = molecular target: T1, SpsB (Staphylococcus aureus signal peptidase) (Staphylococcus aureus, UniProt P0A070); assay: cell-based; type: biochemical; conditions: fluorogenic peptide substrate, kinetic read 30 min
T1 construct: This assay uses a suspension of Staphylococcus aureus cells as a source of SpsB instead of recombinant SpsB protein; endogenous in cells; host or cells: S. aureus, USA300 background, overexpressing SpsB (whole-cell suspension from frozen pellets)
T1 sequence (P0A070 whole entry): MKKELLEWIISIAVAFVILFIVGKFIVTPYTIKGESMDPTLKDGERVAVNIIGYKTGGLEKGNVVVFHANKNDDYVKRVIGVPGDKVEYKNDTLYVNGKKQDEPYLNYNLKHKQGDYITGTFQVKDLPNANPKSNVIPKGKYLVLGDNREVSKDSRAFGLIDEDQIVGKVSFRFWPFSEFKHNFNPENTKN
Protocol: A kinetic fluorogenic enzyme activity assay was used to assess inhibition of SpsB (Staphylococcus aureus signal peptidase) activity and IC50s were determined. This assay uses a suspension of Staphylococcus aureus cells as a source of SpsB instead of recombinant SpsB protein.
Cell preparation: Luria broth (LB) was inoculated with S. aureus (USA300 background, overexpressing SpsB) and shaken at 37° C. until an OD600 nm of 1.5-2.0 was reached (˜4 hr). The culture was then diluted to an OD600 nm of 1.0 with LB, aliquoted and centrifuged at 10,000×g for 2 mins. The supernatant was removed and the pellet was resuspended in phosphate buffer (1×PBS, 12.5 mg/L MgCl2, 25 mg/L CaCl2, 0.1% Tween-80) to an OD600 nm of 0.5, then centrifuged again at 10,000x g for 2 mins. The supernatant was removed and the pellets were frozen at −20° C.
Test compounds were prepared in DMSO at a concentration of 10 mg/mL. These compound stocks were diluted into DMSO to a concentration of 25 μg/mL and serial 3-fold dilutions were made in DMSO, for a total of 11 compound concentrations. 20 nL of each compound solution was pre-spotted into a white 384-well plate (50 μL/well polypropylene, Nunc) using acoustic fluid transfer (Echo).
Frozen S. aureus pellets were resuspended in assay buffer (1x PBS, 12.5 mg/L MgCl2, 25 mg/L CaCl2, 0.1% Tween-80) to an OD600 nm of 0.05, then mixed 1:1 (v/v) with 20 μM substrate ((Dabcyl)βAla-KPAKAAE(Edans)) in assay buffer, and this solution was added (20 μL/well) to the 384-well plate that had been pre-spotted with compound. Fluorescence intensity was then immediately read kinetically for 30 minutes with 2 minute read intervals to monitor cleavage of the internally quenched peptide substrate (excitation wavelength=340 nm, emission wavelength=490 nm, Molecular Devices Spectramax M5). Reaction rate (slope) was plotted against inhibitor concentration to derive the IC50.

[2] = system: Escherichia coli MC4100 harboring the IMP4213 (E. coli IMP); assay: microbe, parasite or virus in culture; type: cell-based; conditions: Escherichia coli, 22 h, read-out: MIC (μg/mL) E. coli IMP, E. coli MC4100 IMP4213, increased outer-membrane permeability; 35° C., 22 hours
How it was run: (§1)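 Ten-point 2-fold series began at 4 μg/mL in protocol 2 and 0.5 μg/mL in protocol 3, in cation-adjusted MHB plus 0.002% Tween-80. Bacteria added to OD600 0.0005 final and incubated at 35° C for 22 hours per CLSI microdilution.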

[3] = system: Methicillin Resistant Staphylococcus aureus strain USA 300, NRS384; assay: Minimum inhibitory concentration, broth micro-dilution (CLSI), S. aureus; type: cell-based; conditions: Staphylococcus aureus, MRSA / NRS 384 / USA300, 22 h, 35° C., 22 hours
How it was run: as §1

[4] = system: Escherichia coli ATCC 25922; assay: Minimum inhibitory concentration, broth micro-dilution (CLSI), E. coli; type: cell-based; conditions: Escherichia coli, ATCC25922, 22 h, 35° C., 22 hours
[5] = SpsB IC50, whole-cell S. aureus (USA300 background, overexpressing SpsB) as SpsB source
[6] = read-out: MIC (μg/mL) S. aureus, MRSA USA 300 NRS384
[7] = read-out: MIC (μg/mL) E. coli, E. coli ATCC 25922
[8] = MRSA USA 300 NRS384, read-out: MIC (μg/mL) S. aureus
[9] = E. coli ATCC 25922, read-out: MIC (μg/mL) E. coli

## C[C@@H]1NC(=O)[C@@H](N(C)C(=O)[C@H](CCN)NC(=O)c2ccc(C#Cc3ccccc3)cc2)c2ccc(OCCN)c(c2)-c2cc(ccc2OCCN)C[C@@H](C(=O)NCC#N)NC1=O [Compound 120]
[1]; [5]
  IC50: 1 nM
[2]
  MIC: 0.016 µg/mL (≈ 0.019 µM)
[3]; [6]
  MIC: 0.094 µg/mL (≈ 0.112 µM)
[4]; [7]
  MIC: 0.44 µg/mL (≈ 0.523 µM)

## C[C@@H]1NC(=O)[C@@H](N(C)C(=O)[C@H](CCN)NC(=O)c2ccc(CCc3ccccc3)cc2)c2ccc(OCCN)c(c2)-c2cc(ccc2OCCN)C[C@@H](C(=O)NCC#N)NC1=O [Compound 121]
[1]; [5]
  IC50: 1.2 nM
[2]
  MIC: 0.023 µg/mL (≈ 0.0272 µM)
[3]; [6]
  MIC: 0.13 µg/mL (≈ 0.154 µM)
[4]; [7]
  MIC: 2 µg/mL (≈ 2.36 µM)

## C[C@@H]1NC(=O)[C@@H](N(C)C(=O)[C@H](CCN)NC(=O)c2ccc(-c3ccc(-c4ccccc4)cc3)cc2)c2ccc(OCCN)c(c2)-c2cc(ccc2OCCN)C[C@@H](C(=O)NCC#N)NC1=O [Compound 122]
[1]; [5]
  IC50: 1.6 nM
[2]
  MIC: 0.031 µg/mL (≈ 0.0347 µM)
[3]; [6]
  MIC: 0.063 µg/mL (≈ 0.0705 µM)
[4]; [7]
  MIC: 0.25 µg/mL (≈ 0.28 µM)

## CCCCC1CCC(C(=O)N[C@@H](CCN)C(=O)N(C)[C@@H]2C(=O)N[C@@H](C)C(=O)N[C@H](C(=O)NCC#N)Cc3ccc(OCCN)c(c3)-c3cc2ccc3OCCN)CC1 (stereo partly drawn) [Compound 123]
[1]; read-out: SpsB IC50, whole-cell S. aureus (USA300 background, overexpressing SpsB) as SpsB source
  IC50: 1.2 nM
[2]
  MIC: 0.0078 µg/mL (≈ 0.0097 µM)
[3]; [8]
  MIC: 0.19 µg/mL (≈ 0.236 µM)
[4]; [9]
  MIC: 0.5 µg/mL (≈ 0.622 µM)

## CCCCc1ccc(C#CC(=O)N[C@@H](CCN)C(=O)N(C)[C@@H]2C(=O)N[C@@H](C)C(=O)N[C@H](C(=O)NCC#N)Cc3ccc(OCCN)c(c3)-c3cc2ccc3OCCN)cc1 [Compound 124]
[1]; [5]
  IC50: 1.6 nM
[2]
  MIC: 0.031 µg/mL (≈ 0.0377 µM)
[3]; [8]
  MIC: 0.13 µg/mL (≈ 0.158 µM)
[4]; [9]
  MIC: 2 µg/mL (≈ 2.43 µM)

## CCCCc1ccc(C(=O)N[C@@H](CCCN)C(=O)N(C)[C@@H]2C(=O)N[C@@H](C)C(=O)N[C@H](C(=O)NCC#N)Cc3ccc(OCCN)c(c3)-c3cc2ccc3OCCN)cc1 [Compound 127]
[1]; [5]
  IC50: 5.9 nM
[2]
  MIC: 0.063 µg/mL (≈ 0.0776 µM)
[3]; [8]
  MIC: 0.5 µg/mL (≈ 0.616 µM)
[4]; [9]
  MIC: 4 µg/mL (≈ 4.93 µM)

## CCCCCCCCCCNCCC(=O)N[C@@H](CCN)C(=O)N(C)[C@@H]1C(=O)N[C@@H](C)C(=O)N[C@H](C(=O)NCC#N)Cc2ccc(OCCN)c(c2)-c2cc1ccc2OCCN [Compound 129]
[1]; [5]
  IC50: 0.67 nM
[2]
  MIC: 0.094 µg/mL (≈ 0.111 µM)
[3]; [8]
  MIC: 0.023 µg/mL (≈ 0.0271 µM)
[4]; [9]
  MIC: 4 µg/mL (≈ 4.71 µM)

## CCCCCCCCCCNCCC(=O)N(C)[C@@H]1C(=O)N[C@@H](C)C(=O)N[C@H](C(=O)NCC#N)Cc2ccc(OCCN)c(c2)-c2cc1ccc2OCCN [Compound 131]
[1]; [5]
  IC50: 0.74 nM
[2]
  MIC: 1.8 µg/mL (≈ 2.4 µM)
[3]; [8]
  MIC: 0.047 µg/mL (≈ 0.0628 µM)
[4]; [9]
  MIC: 64 µg/mL (≈ 85.5 µM)

## CCCCCCCCCCNCC(=O)N(C)[C@@H]1C(=O)N[C@@H](C)C(=O)N[C@H](C(=O)NCC#N)Cc2ccc(OCCN)c(c2)-c2cc1ccc2OCCN [Compound 132]
[1]; [5]
  IC50: 0.71 nM
[2]
  MIC: 3 µg/mL (≈ 4.08 µM)
[3]; [6]
  MIC: 0.25 µg/mL (≈ 0.34 µM)
[4]; [7]
  MIC: > 64 µg/mL

## CCCCCCCCCNCCCC(=O)N(C)[C@@H]1C(=O)N[C@@H](C)C(=O)N[C@H](C(=O)NCC#N)Cc2ccc(OCCN)c(c2)-c2cc1ccc2OCCN [Compound 133]
[1]; [5]
  IC50: 1.1 nM
[2]
  MIC: > 4 µg/mL
[3]; [8]
  MIC: 0.25 µg/mL (≈ 0.334 µM)
[4]; [9]
  MIC: > 64 µg/mL

## CCCCCCCCNCCCCC(=O)N(C)[C@@H]1C(=O)N[C@@H](C)C(=O)N[C@H](C(=O)NCC#N)Cc2ccc(OCCN)c(c2)-c2cc1ccc2OCCN [Compound 134]
[1]; [5]
  IC50: 3.5 nM
[2]
  MIC: > 4 µg/mL
[3]; [8]
  MIC: 1.5 µg/mL (≈ 2 µM)
[4]; [9]
  MIC: > 64 µg/mL

## CCCCc1ccc(-c2ccc(C(=O)N[C@@H](CCCCN)C(=O)N(C)[C@@H]3C(=O)N[C@@H](C)C(=O)N[C@H](C(=O)N[C@H](C)C#N)Cc4ccc(OCCN)c(c4)-c4cc3ccc4OCCN)cc2)cc1 [Compound 136]
[1]; [5]
  IC50: 10 nM
[2]
  MIC: 0.38 µg/mL (≈ 0.415 µM)
[3]; [8]
  MIC: 2 µg/mL (≈ 2.18 µM)
[4]; [9]
  MIC: 8 µg/mL (≈ 8.73 µM)
